Primed or numbered codes have the meaning given here. No end group written: not given here. *: point of attachment. Biotin = O=C1N[C@H]2[C@H](CS[C@H]2CCCCC(=O)*)N1; Biotin′ = not defined here
tested on: VEGF-D neutralizing monoclonal antibody mAb 4A5 (VDnmAb); test: ELISA of biotinylated synthetic peptides on streptavidin plates for VDnmAb binding; settings: 1st peptide library; 10 pmol peptide; VDnmAb 2 μg/ml; signal more than two-fold greater than background considered positive
Source text: Peptides. A series of synthetic 15-mer peptides (peptides 1 to 35, SEQ ID NOs: 4 to 38 in FIG. 4B, which overlap each other by 12 amino acids) were synthesized (Mimotopes Pty Ltd, Melbourne, Australia). The peptides encompassed the VHD of human VEGF-D (SEQ ID NO: 3, FIG. 4A). Peptide 36 (SEQ ID NO: 39) represented an artificial sequence including a FLAG tag as a positive control for a commercial anti-FLAG mAb (M2; Sigma) that was used as control for non-specific binding to peptides 1 to 35 (SEQ ID NOs: 4 to 38). Biotin was included at the N-terminal of each peptide during synthesis, except that peptide 1 (SEQ ID NO: 4, representing the N-terminal of the VHD) has biotin at the C-terminal. The four-amino acid linker “SGSG” was introduced between the N-terminal of each peptide sequence and biotin to provide more flexibility to peptides after immobilization on streptavidin plates, except peptide 1 (SEQ ID NO: 4) that included the C-terminal linker “GSG”.
ELISA. Reacti-Bind streptavidin high-binding-capacity coated plates (Pierce) were coated with 10 pmol of each peptide in PBS, blocked with 5% milk in PBS-0.1% Tween 20, and incubated with 100 μl of VEGF-D neutralizing monoclonal antibody mAb 4A5 (referred to herein as VDnmAb) or M2 at 2 μg/ml for 1 h at room temperature. Bound mAb was detected with goat anti-mouse IgG coupled with HRP. ABTS was used as the substrate, and the absorbance was read at 405 nm in a multiwell plate reader.
In this 2nd peptide library, biotin was included at the N-terminal of each peptide, and the four-amino acid linker “SGSG” was introduced between each peptide sequence and the biotin residue to provide more flexibility to peptides after immobilization on streptavidin plates. ELISA-based analysis of the 2nd peptide library was carried out as for the 1st peptide library.
Peptide 67 (SEQ ID NO: 141, the same as peptide 36, SEQ ID NO: 39 from the 1st library) and peptide 68 (SEQ ID NO: 142), both containing the FLAG tag, were used as controls. In this 3rd peptide library, biotin was included at the N-terminal of each peptide except peptides 6, 12 and 14 (SEQ ID NOs: 80, 86 and 88) which have C-terminal biotin residues. To provide more flexibility to peptides after immobilization on streptavidin plates, an amino acid linker was introduced between biotin residues and the peptide sequence: “SGSG” for N-terminal biotin; “SGS” for C-terminal biotin. ELISA-based analysis of the 3rd peptide library was carried out as for the 1st peptide library, described in Example 1.

Substance	VDnmAb binding to peptide (ELISA signal, absorbance at 405 nm)
FRCGGCCNEESLICM (Biotin-SGSGFRCGGCCNEESLICM; cysteine pairing not given here) [peptide 18 (SEQ ID NO: 21), residues 140 to 154 of human VEGF-D, N-terminal biotin and SGSG linker]	positive
VNVFRCGGCCNEESL (Biotin-SGSGVNVFRCGGCCNEESL; cysteine pairing not given here) [peptide 17 (SEQ ID NO: 20), residues 137 to 151 of human VEGF-D, N-terminal biotin and SGSG linker]	the strongest
peptide 16 (SEQ ID NO: 19): 1st library 15-mer which lacks the three C-terminal residues of peptide 17, SEQ ID NO: 20 (SGSGPPCVNVFRCGGCCNE)	does not bind VDnmAb

same assay, conditions: 2nd peptide library; 10 pmol peptide; VDnmAb 2 μg/ml; signal more than two-fold greater than background considered positive

Substance	VDnmAb binding to peptide (ELISA signal, absorbance at 405 nm)
30 (SEQ ID NO: 69): from mouse VEGF-D, homologous to Peptide 31 (SEQ ID NO: 70): serine 150 to glycine, leucine 151 to valine (Biotin-SGSGVNVFRCGGCCNEEGV; cysteine pairing not given here)	complete loss of VDnmAb binding
FRCGGCCNEESL (Biotin-SGSGFRCGGCCNEESL; cysteine pairing not given here) [peptide 15 (SEQ ID NO: 54), residues 140 to 151 of human VEGF-D, 2nd library, N-terminal biotin and SGSG linker]	positive
NVFRCGGCCNEESL (Biotin-SGSGNVFRCGGCCNEESL; cysteine pairing not given here) [peptide 13 (SEQ ID NO: 52), residues 138 to 151 of human VEGF-D, N-terminal biotin and SGSG linker]	positive
VFRCGGCCNEESL (Biotin-SGSGVFRCGGCCNEESL; cysteine pairing not given here) [peptide 14 (SEQ ID NO: 53), residues 139 to 151 of human VEGF-D, N-terminal biotin and SGSG linker]	the strongest
VNVFRCGGCCNEESL (Biotin-SGSGVNVFRCGGCCNEESL; cysteine pairing not given here) [peptide 17 (SEQ ID NO: 20), residues 137 to 151 of human VEGF-D, N-terminal biotin and SGSG linker]	bound to VDnmAb
VPLMRCGGCCNDEGL (Biotin-SGSGVPLMRCGGCCNDEGL; not fully specified; cysteine pairing not given here) [peptide 33 (SEQ ID NO: 72), residues 78 to 92 of VEGF-A, biotin and linker]	did not bind the antibody
VSLLRCTGCCGDENL (Biotin-SGSGVSLLRCTGCCGDENL; not fully specified; cysteine pairing not given here) [peptide 35 (SEQ ID NO: 74), residues 78 to 92 of PlGF, biotin and linker]	did not bind the antibody
VSVYRCGGCCNSEGL (Biotin-SGSGVSVYRCGGCCNSEGL; not fully specified; cysteine pairing not given here) [peptide 32 (SEQ ID NO: 71), residues 157 to 171 of human VEGF-C, biotin and linker]	did not bind the antibody
VTVQRCGGCCPDDGL (Biotin-SGSGVTVQRCGGCCPDDGL; not fully specified; cysteine pairing not given here) [peptide 34 (SEQ ID NO: 73), residues 73 to 87 of VEGF-B, biotin and linker]	did not bind the antibody
peptide 18 (SEQ ID NO: 57): peptide 14 (SEQ ID NO: 53) with deletion of the leucine residue corresponding to position 151 (SGSGVFRCGGCCNEES)	complete loss of VDnmAb binding
peptide 22 (SEQ ID NO: 61): 2nd library: single mutation of cysteine in the binding region, C146S (SGSGVNVFRCGGCSNEESL)	very minor or no effect on VDnmAb binding

same assay, conditions: 3rd peptide library; 10 pmol peptide; VDnmAb 2 μg/ml; signal more than two-fold over background considered positive

Substance	VDnmAb binding to peptide (ELISA signal, absorbance at 405 nm)
CGGCCNEESL (SGSGCGGCCNEESL) [peptide 15 (SEQ ID NO: 89)]	positive
FRCGGCCNEESL [peptide 12 (SEQ ID NO: 86)] (FRCGGCCNEESLSGS-{Biotin′}; cysteine pairing not given here)	decreases in VDnmAb binding
GGCCNEESL (SGSGGGCCNEESL) [peptide 16 (SEQ ID NO: 90)]	positive
RCGGCCNEESL [peptide 13 (SEQ ID NO: 87)] (Biotin-SGSGRCGGCCNEESL; cysteine pairing not given here)	the strongest
RCGGCCNEESL [peptide 14 (SEQ ID NO: 88)] (RCGGCCNEESLSGS-{Biotin′}; cysteine pairing not given here)	decreases in VDnmAb binding
VFRCGGCCNEESL (VFRCGGCCNEESLSGS-{Biotin′}; cysteine pairing not given here) [peptide 6 (SEQ ID NO: 80)]	decreases in VDnmAb binding
peptide 1 (SEQ ID NO: 75): 3rd library: variant of VFRCGGCCNEESL with mutation S150C (SGSGVFRCGGCCNEECL)	loss, even complete loss, of VDnmAb binding
peptide 2 (SEQ ID NO: 76): 3rd library: variant of VFRCGGCCNEESL with mutation S150A (SGSGVFRCGGCCNEEAL)	reduced VDnmAb binding somewhat
peptide 3 (SEQ ID NO: 77): 3rd library: variant of VFRCGGCCNEESL with mutation S150T (SGSGVFRCGGCCNEETL)	loss, even complete loss, of VDnmAb binding
peptide 4 (SEQ ID NO: 78): 3rd library: variant with deletion of one of N147, E148, E149, S150 (SGSGVFRCGGCCNEEL)	loss of VDnmAb binding
peptide 7 (SEQ ID NO: 81): 3rd library: mutation of residue 151 to valine (SGSGVFRCGGCCNEESV)	decreased VDnmAb binding
peptide 8 (SEQ ID NO: 82): 3rd library: mutation of residue 151 to alanine (SGSGVFRCGGCCNEESA)	decreased VDnmAb binding
peptide 9 (SEQ ID NO: 83): 3rd library: mutation V139L (SGSGLFRCGGCCNEESL)	little or no effect on VDnmAb binding
peptide 10 (SEQ ID NO: 84): 3rd library: mutation V139A (SGSGAFRCGGCCNEESL)	little or no effect on VDnmAb binding
peptide 17 (SEQ ID NO: 91): 3rd library: mutation F140Y (SGSGVYRCGGCCNEESL)	little or no effect on VDnmAb binding
peptide 18 (SEQ ID NO: 92): 3rd library: mutation F140A (SGSGVARCGGCCNEESL)	little or no effect on VDnmAb binding
peptide 19 (SEQ ID NO: 93): 3rd library: deletion of F140 (SGSGVRCGGCCNEESL)	little or no effect on VDnmAb binding
peptide 20 (SEQ ID NO: 94): 3rd library: mutation R141K (SGSGVFKCGGCCNEESL)	more pronounced effect
peptide 21 (SEQ ID NO: 95): 3rd library: mutation R141A (SGSGVFACGGCCNEESL)	little or no effect on VDnmAb binding

same assay, conditions: 3rd peptide library; 10 pmol peptide; VDnmAb 2 μg/ml; signal more than two-fold over background considered positive; listed as peptide 5 (SEQ ID NO: 79)

Substance	VDnmAb binding to peptide (ELISA signal, absorbance at 405 nm)
VFRCGGCCNEESL (Biotin-SGSGVFRCGGCCNEESL; cysteine pairing not given here) [peptide 14 (SEQ ID NO: 53), residues 139 to 151 of human VEGF-D, N-terminal biotin and SGSG linker]	bound to VDnmAb
